Measurements taken from EP0933379B1, “NOVEL PEPTIDE DERIVATIVES HAVING THIAZOLYL-ALANINE RESIDUE” (SHIONOGI & CO., LTD., priority 1996, dated 1998).

Legend:
[1] = tested on: reserpine-induced hypothermia mice; experiment: Anti-reserpine action after oral administration of test compounds; format: in vivo, mice (ddY, male); conditions: 10 µmol/kg in saline, calculated from AUC of rectal temperature over 420 min versus vehicle, reserpine 3 mg/kg s.c. 18 hours before
Description: Reserpine-induced hypothemia mice (ddY, male, body weight 30 to 40 g) were prepared by the subcutaneous administration of reserpine in back side of the […] (3 mg/kg) at 18 hours before test compounds administration. Mice with their body temperature about 25 °C were used in the experiment. Test compounds were solubilized in saline and 0.2 ml (10 µmol/kg) of them were administered by sonde for oral administration. After the administration, rectal temperature was measured at 30, 60, 120, 180, 240, 300, […]. The area under curve (AUC) of the body temperature-time profile was calculated by the general trapezoidal method. In the control experiment, vehicle (saline) was administered to mice and the rectal temperature was measured by the same protocol.
Effective dose: Dose which can increase the average of body temperatures at 1 °C for 420 min in reserpine-induced hypothermia mice.

[2] = tested on: reserpine-induced hypothermia mice; experiment: Anti-reserpine action after intravenous and intracerebroventricular administration of test compounds; format: in vivo, mice (ddY, male); conditions: calculated from AUC of rectal temperature over 180 min versus vehicle; for Dose which can increase the average of body temperatures at 1 °C for 180 min in reserpine-induced hypothermia mice, administered intracerebroventricularly: intracerebroventricular, 0.21 µmol/kg; for Dose which can increase the average of body temperatures at 1 °C for 180 min in reserpine-induced hypothermia mice, administered intravenously: intravenous, 1 µmol/kg
Description: Recerpine-induced hypothermia mice (ddY, male) were prepared by the administration of reserpine (3 mg/kg) at 18 hours before test compounds administration. Mice with their body temperature about 25 °C were used in the experiment. Test compounds were solubilized in saline and 0.1 ml (1 µmol/kg) of them were administered intravenously and 0.005 ml (0.21 µmol/kg) of them were administered intracerebroventricularly, respectively. After the administration, rectal temperature was measured at 30, 60, 120, and 180 min. The area under curve (AUC) of the body temperature-time profile was calculated by the general trapezoidal method. In the control experiment, vehicle (saline) was administered to mice intravenously or intracerebroventricularly and the rectal temperature was measured by the same protocol.
Effective dose: Dose which can increase the average of body temperatures at 1°C for 180 min in reserpine-induced hypothermia mice.

[3] = Change of blood glucose levels after administration of the test compounds to rats; format: in vivo, male Wistar rats; conditions: for blood glucose level as a percentage compared to the baseline level: 50 µmol/kg intravenously, vehicle-treated rats = 100 %
Description: Fasted male Wistar rats (250-350 g) were anaesthesized with urethane. Test compounds were solubilized in saline and administered intravenously (50 µmol/kg). Body temperature of rats were kept at 37 °C by a hot blanket. After the administration, blood was collected from jugular vein at 5, 15, 30, 60, 120, 180, 240, 300, 360, 420, and 480 min and blood glucose levels were measured (BM Test blood sugar. Wako Chemical Indus.). The blood glucose levels at each sampling time in vehicle (saline)-treated rats were defined as the baseline level (100 %). […]

[4] = time 0 min, fasted urethane-anaesthetized rats

Compound | Dose which can increase the average of body temperatures at 1 °C for 420 min in reserpine-induced hypothermia mice (by oral) [1] [µmol/kg] | Dose which can increase the average of body temperatures at 1 °C for 180 min in reserpine-induced hypothermia mice, administered intracerebroventricularly [2] [µmol/kg] | Dose which can increase the average of body temperatures at 1 °C for 180 min in reserpine-induced hypothermia mice, administered intravenously [2] [µmol/kg] | blood glucose level as a percentage compared to the baseline level [3, 4] [%] | blood glucose level as a percentage compared to the baseline level ([3]; time 5 min) [%] | blood glucose level as a percentage compared to the baseline level ([3]; time 15 min) [%] | blood glucose level as a percentage compared to the baseline level ([3]; time 30 min) [%] | blood glucose level as a percentage compared to the baseline level ([3]; time 60 min) [%] | blood glucose level as a percentage compared to the baseline level ([3]; time 120 min) [%] | blood glucose level as a percentage compared to the baseline level ([3]; time 180 min) [%] | blood glucose level as a percentage compared to the baseline level ([3]; time 240 min) [%] | blood glucose level as a percentage compared to the baseline level ([3]; time 300 min) [%] | blood glucose level as a percentage compared to the baseline level ([3]; time 360 min) [%] | blood glucose level as a percentage compared to the baseline level ([3]; time 420 min) [%] | blood glucose level as a percentage compared to the baseline level ([3]; time 480 min) [%] | acute rise of the blood glucose level and acute fall by the rebound ([3]; result in words, general description)
C[C@H]1OC(=O)N[C@H]1C(=O)N[C@@H](Cc1cscn1)C(=O)N1CCC[C@H]1C(N)=O (mixture of isomers) [I-10, cis-L-5-methyl-2-oxo-oxazolidine-4-yl-carbonyl-3-(4-thiazolyl)-L-alanyl-L-prolineamide] | 1.14 | 0.025 | 0.11 | 107.7 | 119.9 | 104.3 | 109.1 | 112.1 | 126.5 | 105.3 | 110.9 | 104.0 | 100.4 | 102.6 | 111.8 | 
C[C@H]1OC(=O)N(CN2CCOCC2)[C@H]1C(=O)N[C@@H](Cc1cscn1)C(=O)N1CCC[C@H]1C(N)=O (mixture of isomers) [I-40, cis-L-3-morpholinomethyl-5-methyl-2-oxo-oxazolidine-4-yl-carbonyl-3-(4-thiazolyl)-L-alanyl-L-prolineamide] | 1.65 |  |  |  |  |  |  |  |  |  |  |  |  |  |  | 
CN1C(=O)C[C@@H](C(=O)N[C@@H](Cc2cscn2)C(=O)N2CSC[C@H]2C(N)=O)NC1=O [I-5] | 1.22 |  |  |  |  |  |  |  |  |  |  |  |  |  |  | 
C[C@@H]1OC(=O)N[C@@H]1C(=O)N[C@@H](Cc1cscn1)C(=O)N1CSC[C@H]1C(N)=O [I-11] | 2.03 |  |  |  |  |  |  |  |  |  |  |  |  |  |  | 
CC(C)OC(=O)CNC(=O)[C@@H]1CCCN1C(=O)[C@H](Cc1cscn1)NC(=O)[C@H]1NC(=O)O[C@H]1C [I-30] | 2.59 |  |  |  |  |  |  |  |  |  |  |  |  |  |  | 
NC(=O)[C@@H]1CCCN1C(=O)[C@H](Cc1cnc[nH]1)NC(=O)[C@@H]1CCC(=O)N1 [TRH, L-pyroglutamyl-L-histidyl-L-prolineamide] | 42.68 | 0.033 | 9.84 | 116.3 | 114.6 | 123.3 | 137.9 | 153.5 | 139.1 | 119.1 | 112.6 | 113.2 | 103.5 | 102.6 | 97.1 | acutely raises up the blood glucose level
